According to patent US9452988B2, “Bendamustine derivatives and methods of using same” (Ignyta, Inc., priority 2012, dated 2016):
Where two headings read alike, the source gives them in different places. Marks after values point to notes of the source that are not given here.

Experiments:
H-460 (NSCLC) = assay: MTS cell assay, H-460; assay type: cell-based, Human; details: Homo sapiens, NCI-H460, 72 hours
Description: (§1) Human carcinoma cells (2,000 cells/well) were incubated with the desired concentration of the test molecule (0-200 μM) for 72 hours. The cells were then incubated with MTS solution (Promega) for 1-2 hours, and the compounds effects on cell proliferation was determined by measuring the absorbance at 490 nm. Cell growth was expressed as a percent of the appropriate control (placebo). […] All data reported was the mean±SE of three independent experiments.

[1] = test system: H460 tumor cells (large cell lung cancer); assay: Nude mouse H460 tumor efficacy study; assay type: in vivo, nu/nu mouse; details: tail vein
Description: 2×10^6 cells/100 ul in the mix of medium and Matrigel (1:1 ratio) solution was injected into right back flank of each nu/nu mouse. The implanted mice were monitored and measured with electric calipers. The study started when the tumors reached ˜150 mm^3 in size. The mice were measured and randomized into 9 groups with 10 mice in each group per the below table: […]

MB-231 (HBC) = assay: MTS cell assay, MB-231; assay type: cell-based, Human; details: Homo sapiens, 72 hours
Description: Charles River Labs athymic nude mice bearing MDA-MB-231 breast carcinoma cell line subcutaneous xenografts (5×10^6 cells in matrigel) were sacrificed to make a tumor isolate. Using sterile instruments and working aseptically, the tumors were removed from the euthanized animal. The tumor was placed in a 50 mL sterile conical tube and 5 mL of trypsin was added. The tumor was cut into small pieces and incubated at 37° C. for 30 minutes. After incubation, a cell strainer was placed on a second, sterile, 50 mL conical tube and the contents of the first tube were placed in the cell strainer. The tissue was forced through the filter using the flat end of a syringe plunger. The cell strainer was washed with 5 mLs of media containing FBS. The cells were spun down and the supernatant was discarded. The cells were resuspended in 20 mLs of complete media containing P/S and placed in a 75 cm flask.
as §1

[2] = CD-1 mice plasma pharmacokinetics, bendamustine C14 ester albumin nanoparticle i.v.; assay type: in vivo; details: mouse, iv; for Vd: Mean n = 3; for AUC(0-t): Mean n = 3, read-out: AUC0-6 of C14 Ester in plasma; for AUC(0-inf): Mean n = 3, read-out: AUC0-∞ of C14 Ester in plasma; for clearance: Mean n = 3, read-out: CL of C14 Ester; for half-life: Mean n = 3, read-out: t1/2 of C14 Ester in plasma (converted)
Description: Another embodiment of the invention, bendamustine C14 ester was formulated into a nanoparticle intraveneous formulation according to the methods described above and administered to CD-1 mice. The amount of bendamustine (BM1) and bendamustine C14 ester was determined in the mice plasma.

[3] = Tumor and plasma levels, H460 tumor efficacy PK group; details: nu/nu, mouse, in vivo
Description: The formulations were administrated as 100 μL dose volume through tail vein injection within 30 minutes after compounds were formulated. All the mice were weighed and tumors measured twice weekly. At the last day of the study, plasma, tumor, lung, liver, spleen, left kidney, brain and legs were collected and quickly frozen for further analysis two hours post-dosing.
(§2) A portion of the tumor bearing mice were dosed as a satellite PK group. Each group was dosed as described for the tumor efficacy group, however the PK group was euthanized and tissue samples collected at 1, 3 and 6 hours post dosing on day 2. The tissues collected included blood, lung, liver and tumor. Samples were analyzed for bendamustine HCl and the corresponding ester analogue as described in the LC-MS protocol section.
(§3) Plasma and other tissues were prepared for high performance liquid chromatography (HPLC)/mass spectrometric analysis according to a standard protocol following protein precipitation with acetonitrile containing an internal standard. The samples were then analyzed for both bendamustine HCl and bendamustine esters of the invention and alprenolol (internal standard) via HPLC coupled with tandem mass spectrometry. Tissue samples were homogenized in sodium phosphate buffer and the value obtained from the assay was multiplied by 3 to correct for dilution during processing.

MDA-MB-231 xenografts = assay: Nude mouse MDA-MB-231 tumor efficacy study; assay type: in vivo, athymic nude mice; details: tail vein day 1 and 2
Description: Charles River Labs athymic nude mice were subcutaneous injected with 5×10^6 human tumor cells in matrigel. The tumor volume was monitored until an average tumor size of ˜150 mm^3 was obtained in the mouse population The mice were then randomized in to one of the nine treatment groups (summarized in table below) with a population of 10 mice per group (n=10). Each of the formulations were dosed at 100 μL fixed volume via tail vein injection on day 1 and day 2 of the study. Mice were weighed and the tumor volume measured every 3-4 days for 3 weeks of the study duration.

[4] = Tumor and plasma levels, MDA-MB-231 tumor efficacy PK group; details: athymic nude, mouse, in vivo
Description: as §2, §3

[5] = test system: RPMI 8226 (Human Plasmacytoma, Myeloma B Cells)
Description: Cells (originated from ATCC) were cultured on RPMI medium. Cell suspension was centrifuged and resuspended in 50% Matrigel/HBSS to a final concentration of 7×10^7 cells/ml. The suspension was implanted s.c. in the right flank of the anesthetized mouse at a volume of 100 μl.
Seven ml saline were added to the original vial containing 3.5 mg powder resulting in 0.5 mg/ml. Three ml of this solution were added to 27 ml saline to receive 0.05 mg/ml concentration.
bendamustine preparation: 13.5 mg was dissolved in 3.6 ml of 1:1 mixture of 0.9% saline/5% mannitol just before the treatment. 1.05 ml of this solution was added to 0.95 ml diluent for 2 mg/ml solution.
1.05 ml of this solution was added to 0.95 ml diluent for 2 mg/ml solution.
On day 21, mice were sorted by the optimal average tumor volume (˜150 mm^3) and were allocated into eight groups of 9 mice each.
[formula] The analysis of weight gain and tumor volume progression was made using one-way ANOVA followed by Tukey post-hoc comparisons. Results

[6] = reported; cited from earlier work
[7] = HSA nanoparticle, 80 mg/kg Free Base Eq.
[8] = Solution, 80 mg/kg Free Base Eq.
[9] = 80 mg/kg, Ester level in plasma at 1 hour, HSA nanoparticle
[10] = 80 mg/kg, Ester level in plasma at 1 hour, Solution
[11] = 80 mg/kg, Ester level in tumor at 1 hour, HSA nanoparticle
[12] = 80 mg/kg, Ester level in tumor at 1 hour, Solution
[13] = 20 mg/kg iv on days 1 and 2, day 46
[14] = 37.5 mg/kg iv on days 1 and 2, day 46
[15] = Solution (TREANDA), 37.5 mg/kg Free Base Eq.

Structure (SMILES): CCCCCCCCCCCCCCOC(=O)CCCc1nc2cc(N(CCCl)CCCl)ccc2n1C [Bendamustine C14 Ester, 4-{5-[Bis-(chloroethyl)-amino]-1-methyl-1H-benzimidazol-2-yl}butyric acid tetradecyl ester]
- IC50 (H-460 (NSCLC)): 130 µM
- % Morbidity [1, 7]: 10%
- % Mortality [1, 7]: 0%
- % Tumor Inh. [1, 7]: 40%
- % Morbidity [1, 8]: 100%
- % Mortality [1, 8]: 40%
- % Tumor Inh. [1, 8]: 81%
- IC50 (MB-231 (HBC)): > 200 µM
- Vd ([2]; 30 mg/kg, 30 mg-eq/kg): 3.2 L/kg
- AUC(0-t) ([2]; 30 mg/kg, 30 mg-eq/kg): 31700 ng·h/mL
- AUC(0-inf) ([2]; 30 mg/kg, 30 mg-eq/kg): 31700 ng·h/mL
- clearance ([2]; 30 mg/kg, 30 mg-eq/kg): 24 mL/min/kg
- half-life ([2]; 30 mg/kg, 30 mg-eq/kg): 1.52 h
- Vd ([2]; 55 mg/kg, 55 mg-eq/kg): 2.5 L/kg
- AUC(0-t) ([2]; 55 mg/kg, 55 mg-eq/kg): 48900 ng·h/mL
- AUC(0-inf) ([2]; 55 mg/kg, 55 mg-eq/kg): 49000 ng·h/mL
- clearance ([2]; 55 mg/kg, 55 mg-eq/kg): 29 mL/min/kg
- half-life ([2]; 55 mg/kg, 55 mg-eq/kg): 0.98 h
- Vd ([2]; 80 mg/kg, 80 mg-eq/kg): 5.2 L/kg
- AUC(0-t) ([2]; 80 mg/kg, 80 mg-eq/kg): 46300 ng·h/mL
- AUC(0-inf) ([2]; 80 mg/kg, 80 mg-eq/kg): 46500 ng·h/mL
- clearance ([2]; 80 mg/kg, 80 mg-eq/kg): 56 mL/min/kg
- half-life ([2]; 80 mg/kg, 80 mg-eq/kg): 1.09 h
- concentration at 1 h [3, 9]: 3650 ng/mL
- concentration at 1 h [3, 10]: 32200 ng/mL
- concentration at 1 h [3, 11]: 4570 ng/mL
- concentration at 1 h [3, 12]: 8570 ng/mL
- % Morbidity (MDA-MB-231 xenografts; HSA nanoparticle, 80 mg/kg): 60%
- % Mortality (MDA-MB-231 xenografts; HSA nanoparticle, 80 mg/kg): 0%
- % Tumor Inh. (MDA-MB-231 xenografts; HSA nanoparticle, 80 mg/kg): 86.5%
- % Morbidity (MDA-MB-231 xenografts; Solution, 80 mg/kg): 40%
- % Mortality (MDA-MB-231 xenografts; Solution, 80 mg/kg): 0%
- % Tumor Inh. (MDA-MB-231 xenografts; Solution, 80 mg/kg): 90%
- concentration at 1 h [4, 9]: 5730 ng/mL
- concentration at 1 h [4, 10]: 14 ng/mL
- concentration at 1 h [4, 11]: 10400 ng/mL
- concentration at 1 h [4, 12]: 396 ng/mL

Structure (SMILES): COC(=O)CCCc1nc2cc(N(CCCl)CCCl)ccc2n1C [—CH3, 4-{5-[Bis-(2-chloro-ethyl)-amino]-1-methyl-1H-benzoimidazol-2-yl}-butyric acid methyl ester]
- melting point: 60 to 63 °C (dec.)
- IC50 (H-460 (NSCLC)): 1.2 µM
- IC50 (MB-231 (HBC)): 66 µM

Structure (SMILES): Cn1c(CCCC(=O)O)nc2cc(N(CCCl)CCCl)ccc21 [Bendamustine, 4-[5-[bis(2-chloroethyl)amino]-1-methylbenzimidazol-2-yl]butanoic acid]
- Max BW (mean) reduction ([5]; 20 mg/kg iv on days 1 and 2): −2.7%
- No. of TRD ([5]; 20 mg/kg iv on days 1 and 2): 0
- No. og nTRD ([5]; 20 mg/kg iv on days 1 and 2): 0
- % TGI [5, 13]: 66*** %
- No. of CR [5, 13]: 0
- No. of PR [5, 13]: 0
- mean tumor volume, (mean ± se) [5, 13]: 205 ± 44
- Max BW (mean) reduction ([5]; 37.5 mg/kg iv on days 1 and 2): −6.2%
- No. of TRD ([5]; 37.5 mg/kg iv on days 1 and 2): 0
- No. og nTRD ([5]; 37.5 mg/kg iv on days 1 and 2): 0
- % TGI [5, 14]: 81%
- No. of CR [5, 14]: 0
- No. of PR [5, 14]: 0
- mean tumor volume, (mean ± se) [5, 14]: 113 ± 23
- IC50 (H-460 (NSCLC)): 4 to 26 µM
- % Morbidity [1, 15]: 0/0%
- % Mortality [1, 15]: 0/0%
- % Tumor Inh. [1, 15]: 41.5%
- IC50 (MB-231 (HBC)): 13 to 16 µM
- half-life in vivo [6]: 6 to 10 min
- concentration at 1 h ([3]; 37.5 mg/kg, BM1 level in plasma at 1 hour, Solution (TREANDA)): 1550 ng/mL
- concentration at 1 h ([3]; 37.5 mg/kg, BM1 level in tumor at 1 hour, Solution (TREANDA)): 1470 ng/mL
- % Morbidity (MDA-MB-231 xenografts; Solution, 37.5 mg/kg): 10%
- % Mortality (MDA-MB-231 xenografts; Solution, 37.5 mg/kg): 0%
- % Tumor Inh. (MDA-MB-231 xenografts; Solution, 37.5 mg/kg): 77%
- concentration at 1 h ([4]; 37.5 mg/kg, BM1 level in plasma at 1 hour, Solution): 906 ng/mL
- concentration at 1 h ([4]; 37.5 mg/kg, BM1 level in tumor at 1 hour, Solution): 558 ng/mL
